Reference: patent publication US20240116985A1, “STAPLED PEPTIDES AND METHODS THEREOF” (priority 2020, published 2024)
Like-named read-outs stand apart in the source and are kept apart here.

Key:
[1] = target: T1, full-length beta-Catenin (Uniprot ID P35222) (Homo sapiens, UniProt P35222); experiment: Fluorescence polarization IC50 (beta-catenin / 5FAM-TCF4 10-53 competition); format: binding; conditions: fluorescence polarization; read-out: beta-Catenin FP IC50
T1 construct: 10 nM full-length beta-Catenin (Uniprot ID P35222)
T1 sequence (P35222 1-781): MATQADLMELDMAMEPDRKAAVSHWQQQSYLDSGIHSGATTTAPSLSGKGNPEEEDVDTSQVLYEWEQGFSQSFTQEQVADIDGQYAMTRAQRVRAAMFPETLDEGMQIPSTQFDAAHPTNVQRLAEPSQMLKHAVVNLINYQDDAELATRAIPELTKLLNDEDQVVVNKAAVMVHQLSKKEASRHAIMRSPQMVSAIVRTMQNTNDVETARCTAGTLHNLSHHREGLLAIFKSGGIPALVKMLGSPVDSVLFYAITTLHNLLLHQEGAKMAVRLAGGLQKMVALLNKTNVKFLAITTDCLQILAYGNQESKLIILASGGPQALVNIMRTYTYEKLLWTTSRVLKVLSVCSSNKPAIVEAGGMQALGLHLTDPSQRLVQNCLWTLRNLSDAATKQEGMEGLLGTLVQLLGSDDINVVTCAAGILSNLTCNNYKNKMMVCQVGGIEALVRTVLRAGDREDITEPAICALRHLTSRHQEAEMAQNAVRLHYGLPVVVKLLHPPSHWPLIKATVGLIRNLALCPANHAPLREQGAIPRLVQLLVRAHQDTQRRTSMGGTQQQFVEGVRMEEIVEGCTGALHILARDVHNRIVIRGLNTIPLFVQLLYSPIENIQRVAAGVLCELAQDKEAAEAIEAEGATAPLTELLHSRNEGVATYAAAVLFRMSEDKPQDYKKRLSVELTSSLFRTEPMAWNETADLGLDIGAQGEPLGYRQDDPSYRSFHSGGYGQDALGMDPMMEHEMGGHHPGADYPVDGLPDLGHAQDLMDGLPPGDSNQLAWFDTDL

[2] = target: T2, beta-catenin/TCF4 engagement (Homo sapiens, UniProt P35222); experiment: Nano-BRET target engagement assay (B-cat-Halo & TCF4-Luc in HEK293 cells); format: cell-based; conditions: read-out: NanoBRET Abs IC50
T2 construct: expressed in transfected cells; host or cells: HEK293
T2 sequence (P35222 1-781): T1 sequence (P35222 1-781)

SMILES	IC50 [1]	IC50 ([2]; absolute IC50)	IC50 [2]
CC(=O)N1CCC[C@]12CC=CCCCC1(CCCC=CCCCOC(=O)N3CC[C@@](C(=O)N[C@@H](Cc4ccccc4Cl)C(=O)N[C@@H](Cc4csc5ccccc45)C(=O)N[C@@H](CCC(N)=O)C(N)=O)(C3)NC(=O)[C@H](CC(N)=O)NC(=O)[C@H](Cc3ccccc3)NC(=O)[C@H](C)NC(=O)[C@H](C)NC(=O)[C@H](CN(CCCC(F)(F)F)CC(=O)O)NC(=O)[C@H](CC(=O)O)NC1=O)NC(=O)[C@H](CC(C)(C)C)NC(=O)[C@H](CC(=O)O)NC2=O (stereo partly drawn) [I-1446, Ac-PL3-Asp-Npg-B5-Asp-[Tfb]GA-Ala-Ala-Phe-Asn-PyrS2-2C1F-BztA-Gln-NH2]	9 nM	35.2 µM	–
CC(=O)N1CCC[C@]12CC=CCCCC1(CCCC=CCCCOC(=O)N3CC[C@@](C(=O)N[C@@H](Cc4ccccc4C(F)(F)F)C(=O)N[C@@H](Cc4csc5ccccc45)C(=O)N[C@@H](CCC(N)=O)C(=O)N[C@@H](CC(C)C)C(=O)NC4(C(N)=O)CCCC4)(C3)NC(=O)[C@H](CC(C)C)NC(=O)[C@H](Cc3ccccc3)NC(=O)[C@H](C)NC(=O)[C@H](C)NC(=O)[C@H](Cc3cccc(C(=O)O)c3)NC(=O)[C@H](CC(=O)O)NC1=O)NC(=O)[C@H](CC(C)(C)C)NC(=O)[C@H](CC(=O)O)NC2=O (stereo partly drawn) [I-2387, Ac-PL3-Asp-Npg-B5-Asp-3COOHF-Ala-Ala-Phe-Leu-PyrS2-2F3MeF-BztA-Gln-Leu-CyLeu-NH2]	120 nM	7.1 µM	–
CC(=O)N1CCC[C@]12CC=CCCCC1(CCCC=CCCCOC(=O)N3CC[C@@](C(=O)N[C@@H](Cc4ccccc4Cl)C(=O)N[C@@H](Cc4csc5ccccc45)C(=O)N[C@@H](CC(N)=O)C(N)=O)(C3)NC(=O)[C@H](C)NC(=O)[C@H](Cc3ccccc3)NC(=O)[C@H](C)NC(=O)[C@H](C)NC(=O)[C@H](Cc3cccc(C(=O)O)c3)NC(=O)[C@H](CC(=O)O)NC1=O)NC(=O)[C@H](CC(C)(C)C)NC(=O)[C@H](CC(=O)O)NC2=O (stereo partly drawn) [I-2035, Ac-PL3-Asp-Npg-B5-Asp-3COOHF-Ala-Ala-Phe-Ala-PyrS2-2C1F-BztA-Asn-NH2]	16 nM	–	14.5 µM
CC(=O)N1CCC[C@]12CC=CCCCC1(CCCC=CCCCOC(=O)N3CC[C@@](C(=O)N[C@@H](Cc4ccsc4)C(=O)N[C@@H](Cc4csc5ccccc45)C(=O)N[C@@H](CCC(N)=O)C(N)=O)(C3)NC(=O)[C@H](Cn3cc(CN(C)C)nn3)NC(=O)[C@H](Cc3ccccc3)NC(=O)[C@H](C)NC(=O)[C@H](C)NC(=O)[C@H](CN(CC(=O)O)CC(F)(F)F)NC(=O)[C@H](CC(=O)O)NC1=O)NC(=O)[C@H](CC(C)(C)C)NC(=O)[C@H](CC(=O)O)NC2=O (stereo partly drawn) [I-1862, Ac-PL3-Asp-Npg-B5-Asp-TfeGA-Ala-Ala-Phe-[CH2NMe2]TriAzDap-PyrS2-3Thi-BztA-Gln-NH2]	10 nM	–	19.3 µM
CC(=O)N1CCC[C@]12CC=CCCCC1(CCCC=CCCCOC(=O)N3CC[C@@](C(=O)N[C@@H](Cc4ccsc4)C(=O)N[C@@H](Cc4csc5ccccc45)C(=O)N[C@@H](CCC(N)=O)C(N)=O)(C3)NC(=O)[C@H](CC(C)C)NC(=O)[C@H](Cc3ccccc3)NC(=O)[C@H](C)NC(=O)[C@H](C)NC(=O)[C@H](CC(=O)O)NC(=O)[C@H](CC(=O)O)NC1=O)NC(=O)[C@H](CCCCNC(=O)C13CC4(C)CC(C)(CC(C)(C4)C1)C3)NC(=O)[C@H](CC(=O)O)NC2=O (stereo partly drawn) [I-1471, Ac-PL3-Asp-[Me3AdamantC]-Lys-B5-Asp-Asp-Ala-Ala-Phe-Leu-PyrS2-3Thi-BztA-Gln-NH2]	34 nM	> 20 µM	–
CC(=O)N1CCC[C@]12CC=CCCCC1(CCCC=CCCCOC(=O)N3CC[C@@](C(=O)N[C@@H](Cc4ccsc4)C(=O)N[C@@H](Cc4csc5ccccc45)C(=O)N[C@@H](CCC(N)=O)C(N)=O)(C3)NC(=O)[C@H](CC(N)=O)NC(=O)[C@H](Cc3ccccc3)NC(=O)[C@H](C)NC(=O)[C@H](C)NC(=O)[C@H]([C@@H](C)O)NC(=O)[C@H](CC(N)=O)NC1=O)NC(=O)[C@H](CC(C)(C)C)NC(=O)[C@H](CC(=O)O)NC2=O (stereo partly drawn) [I-1565, Ac-PL3-Asp-Npg-B5-Asn-Thr-Ala-Ala-Phe-Asn-PyrS2-3Thi-BztA-Gln-NH2]	148 nM	> 20 µM	–
CC(=O)N1CCC[C@]12CC=CCCCC1(CCCC=CCCCOC(=O)N3CC[C@@](C(=O)N[C@@H](Cc4ccsc4)C(=O)N[C@@H](Cc4csc5ccccc45)C(=O)N[C@@H](CCC(N)=O)C(N)=O)(C3)NC(=O)[C@H](CC(C)C)NC(=O)[C@H](Cc3ccccc3)NC(=O)[C@H](C)NC(=O)[C@H](C)NC(=O)[C@H](CCN(CC(=O)O)C(=O)Cc3ccc(C(F)(F)F)cc3)NC(=O)[C@H](CC(=O)O)NC1=O)NC(=O)[C@H](CC(C)(C)C)NC(=O)[C@H](CC(=O)O)NC2=O (stereo partly drawn) [I-2246, Ac-PL3-Asp-Npg-B5-Asp-[4CF3PhAc]GAbu-Ala-Ala-Phe-Leu-PyrS2-3Thi-BztA-Gln-NH2]	27 nM	12.9 µM	–
CC(=O)N1CCC[C@]12CC=CCCCC1(CCCC=CCCCOC(=O)N3CC[C@@](C(=O)N[C@@H](Cc4ccsc4)C(=O)N[C@@H](Cc4ccc5c(c4)CCC5)C(=O)N[C@@H](C)C(N)=O)(C3)NC(=O)[C@H](C(C)C)NC(=O)[C@H](Cc3ccccc3)NC(=O)[C@H](C)NC(=O)[C@H](CCC(N)=O)NC(=O)[C@H](Cc3cccc(C(=O)O)c3)NC(=O)[C@H](CC(=O)O)NC1=O)NC(=O)[C@H](CC(C)(C)C)NC(=O)[C@H](CC(=O)O)NC2=O (stereo partly drawn) [I-2296, Ac-PL3-Asp-Npg-B5-Asp-3COOHF-Gln-Ala-Phe-Val-PyrS2-3Thi-5IndA-Ala-NH2]	6 nM	5.1 µM	–
CCCC[C@@H]1NC(=O)[C@H](CC(=O)O)NC(=O)[C@]2(CC=CCCCC3(CCCC=CCCCCCC[C@@](C)(C(=O)N[C@@H](Cc4ccccc4)C(=O)N[C@@H](Cc4csc5ccccc45)C(=O)N[C@@H](CCC(N)=O)C(N)=O)NC(=O)[C@H](CC(C)C)NC(=O)[C@H](Cc4ccccc4)NC(=O)[C@H](C)NC(=O)[C@H](C)NC(=O)[C@H](CCC(=O)O)NC(=O)[C@H](CC(=O)O)NC3=O)NC1=O)CCCN2C(C)=O (stereo partly drawn) [I-1523, Ac-PL3-Asp-nLeu-B5-Asp-Glu-Ala-Ala-Phe-Leu-S8-Phe-BztA-Gln-NH2]	29 nM	8 µM	–
CC(=O)N1CCC[C@]12CC=CCCCC1(CCCC=CCCCOC(=O)N3CC[C@@](C(=O)N[C@@H](Cc4ccsc4)C(=O)N[C@@H](Cc4csc5ccccc45)C(=O)N[C@@H](CCC(N)=O)C(=O)N[C@H](CO)[C@@H](C)O)(C3)NC(=O)[C@H](CC(C)C)NC(=O)[C@H](Cc3ccccc3)NC(=O)[C@H](C)NC(=O)[C@H](C)NC(=O)[C@H](CN(CC(=O)O)CC(F)(F)F)NC(=O)[C@H](CC(=O)O)NC1=O)NC(=O)[C@H](CC(C)(C)C)NC(=O)[C@H](CC(=O)O)NC2=O (stereo partly drawn) [I-1683, Ac-PL3-Asp-Npg-B5-Asp-TfeGA-Ala-Ala-Phe-Leu-PyrS2-3Thi-BztA-Gln-Thro1]	9 nM	3.7 µM	–
CC(=O)N1CCC[C@]12CC=CCCCC1(CCCC=CCCCOC(=O)N3CC[C@@](C(=O)N[C@@H](Cc4ccsc4)C(=O)N[C@@H](Cc4csc5ccccc45)C(=O)N[C@@H](CCC(N)=O)C(N)=O)(C3)NC(=O)[C@H](Cn3cc(CN4CCNCC4)nn3)NC(=O)[C@H](Cc3ccccc3)NC(=O)[C@H](C)NC(=O)[C@H](C)NC(=O)[C@H](CN(CC(=O)O)CC(F)(F)F)NC(=O)[C@H](CC(=O)O)NC1=O)NC(=O)[C@H](CC(C)(C)C)NC(=O)[C@H](CC(=O)O)NC2=O (stereo partly drawn) [I-1864, Ac-PL3-Asp-Npg-B5-Asp-TfeGA-Ala-Ala-Phe-[CH2Ppz]TriAzDap-PyrS2-3Thi-BztA-Gln-NH2]	14 nM	–	> 20 µM
CC(=O)N1CCC[C@]12CC=CCCCC1(CCCC=CCCCOC(=O)N3CC[C@@](C(=O)N[C@@H](Cc4ccccc4)C(=O)N[C@@H](Cc4csc5ccccc45)C(=O)N[C@@H](CCCCN)C(N)=O)(C3)NC(=O)[C@H](CC(C)C)NC(=O)[C@H](Cc3ccccc3)NC(=O)[C@H](C)NC(=O)[C@H](CCC(N)=O)NC(=O)[C@H](CCC(N)=O)NC(=O)[C@H](CC(=O)O)NC1=O)NC(=O)[C@H](CC1CCCCC1)NC(=O)[C@H](CC(N)=O)NC2=O (stereo partly drawn) [I-2421, Ac-PL3-Asn-Cha-B5-Asp-Gln-Gln-Ala-Phe-Leu-PyrS2-Phe-BztA-Lys-NH2]	145 nM	> 20 µM	–
CC(=O)N1CCC[C@]12CC=CCCCC1(CCCC=CCCCCCC[C@@](C)(C(=O)N[C@@H](Cc3ccccc3)C(=O)N[C@@H](Cc3csc4ccccc34)C(=O)N[C@@H](CCC(N)=O)C(N)=O)NC(=O)[C@H](CC(C)C)NC(=O)[C@H](Cc3ccccc3)NC(=O)[C@H](C)NC(=O)[C@H](C)NC(=O)[C@H](CCC(=O)O)NC(=O)[C@H](CC(=O)O)NC1=O)NC(=O)[C@H](CC(N)=O)NC(=O)[C@H](CC(=O)O)NC2=O (stereo partly drawn) [I-1533, Ac-PL3-Asp-Asn-B5-Asp-Glu-Ala-Ala-Phe-Leu-S8-Phe-BztA-Gln-NH2]	76 nM	> 20 µM	–
